Source: patent US6342247B1, “Pharmaceutical compositions containing irbesartan” (Sanofi-Synthelabo, priority 1995, dated 2002)

Assay: Stability of tablets / hydrochlorothiazide degradation depending on excipients
Format: physicochemical
Source text: Under certain conditions, hydrochlorothiazide can hydrolyze to form, as by-product products, a free amine degradant and formaldehyde (D.S. Desai et al., International Journal of Phaxmaceutics, 107(2), 141-47 (1994)). The selection of excipients can impact the stability of hydrochlorothiazide. […] The aforementioned preferred compositions of the present invention containing irbesartan and hydrochlorothiazide are thus further advantageous since the excipients employed therein minimize or eliminate hydrochlorothiazide degradation.

degradation of hydrochlorothiazide (poloxamer in the composition): increase the degradation | stability of hydrochlorothiazide (pregelatinized starch as binder, compared with povidone): greater stability
SMILES: NS(=O)(=O)c1cc2c(cc1Cl)NCNS2(=O)=O [hydrochlorothiazide]
stability of hydrochlorothiazide (povidone as binder): formation of quantities of the free amine degradant
